Measured values taken from patent US10874682B2, “Compositions and the use thereof for treating or preventing rosacea” (NESTLÉ SKIN HEALTH SA, priority 2016, dated 2020).

The molecules below were run on arachidonic acid-induced ear edema (assay: Arachidonic acid-induced mouse ear edema test, single topical application). Conditions: 1 h measurement; single topical application on right ear with AA 4%; indomethacin 5%, ivermectin 1%, diclofenac 1%.
Format: in vivo, Balb/c mice
Design: Mean ear edema: unit not given here
Experimental: Example 1: Evaluation of the Anti-Inflammatory Activity of Ivermectin and Diclofenac after a Single Topical Application in the Arachidonic Acid-Induced Mouse Ear Edema Test on Balb/c Mice
Arachidonic acid is dissolved in a mixture of THF/Methanol at 4%.
Tested compounds were dissolved in arachidonic acid solution, at final concentration.
20 μl of the tested compound is dissolved in arachidonic acid solution and applied on the internal side of the right ear.
The ear thickness is measured at T=0 h, T+1 h, T+2 h, T+4 h.
THF/Methanol is used as vehicle control.
Indomethacin 5% is used as positive control and arachidonic acid at 4% in THF/Methanol is used as inductor of inflammation.

Compared with ivermectin, `COc1ccc2c(c1)c(CC(=O)O)c(C)n2C(=O)c1ccc(Cl)cc1` [indomethacin] is lower in Mean ear edema: 8.2 for the first, 1 for the second.

First: CCCCC/C=C\C/C=C\C/C=C\C/C=C\CCCC(=O)O [Arachidonic acid (AA), Arachidonic acid]
Second: O=C(O)Cc1ccccc1Nc1c(Cl)cccc1Cl [diclofenac, 2-(2-(2,6-dichlorophenylamino)phenyl)acetic acid]
The Mean ear edema of the first is higher: 18.8 for the first, 6 for the second.

Same assay, conditions: 1 h measurement; single topical application with AA 4%; indomethacin 5%, ivermectin 1%, diclofenac 1%

First: ivermectin
Second: COc1ccc2c(c1)c(CC(=O)O)c(C)n2C(=O)c1ccc(Cl)cc1 [indomethacin]
The “Inhibition vs AA 4%” value of the first is lower: 56.4 for the first, 94.7 for the second.

For `O=C(O)Cc1ccccc1Nc1c(Cl)cccc1Cl` [diclofenac, 2-(2-(2,6-dichlorophenylamino)phenyl)acetic acid], the “Inhibition vs AA 4%” value was 68.1.

Same assay, conditions: 2 h measurement; single topical application on right ear with AA 4%; indomethacin 5%, ivermectin 1%, diclofenac 1%

Compared with ivermectin, `COc1ccc2c(c1)c(CC(=O)O)c(C)n2C(=O)c1ccc(Cl)cc1` [indomethacin] is lower in Mean ear edema: 8.6 for the first, 1 for the second.

Compared with `CCCCC/C=C\C/C=C\C/C=C\C/C=C\CCCC(=O)O` [Arachidonic acid (AA), Arachidonic acid], `O=C(O)Cc1ccccc1Nc1c(Cl)cccc1Cl` [diclofenac, 2-(2-(2,6-dichlorophenylamino)phenyl)acetic acid] is lower in Mean ear edema: 16.2 for the first, 4 for the second.

Same assay, conditions: 2 h measurement; single topical application with AA 4%; indomethacin 5%, ivermectin 1%, diclofenac 1%

First: ivermectin
Second: COc1ccc2c(c1)c(CC(=O)O)c(C)n2C(=O)c1ccc(Cl)cc1 [indomethacin]
The “Inhibition vs AA 4%” value of the first is lower: 46.9 for the first, 93.8 for the second.

In the case of `O=C(O)Cc1ccccc1Nc1c(Cl)cccc1Cl` [diclofenac, 2-(2-(2,6-dichlorophenylamino)phenyl)acetic acid], the “Inhibition vs AA 4%” value is reported as 75.3.

Same assay, conditions: 4 h measurement; single topical application on right ear with AA 4%; indomethacin 5%, ivermectin 1%, diclofenac 1%

Compared with ivermectin, `COc1ccc2c(c1)c(CC(=O)O)c(C)n2C(=O)c1ccc(Cl)cc1` [indomethacin] is lower in Mean ear edema: 6.2 for the first, 1 for the second.

Compared with `CCCCC/C=C\C/C=C\C/C=C\C/C=C\CCCC(=O)O` [Arachidonic acid (AA), Arachidonic acid], `O=C(O)Cc1ccccc1Nc1c(Cl)cccc1Cl` [diclofenac, 2-(2-(2,6-dichlorophenylamino)phenyl)acetic acid] is lower in Mean ear edema: 13.4 for the first, 3 for the second.

Same assay, conditions: 4 h measurement; single topical application with AA 4%; indomethacin 5%, ivermectin 1%, diclofenac 1%

First: ivermectin
Second: COc1ccc2c(c1)c(CC(=O)O)c(C)n2C(=O)c1ccc(Cl)cc1 [indomethacin]
The “Inhibition vs AA 4%” value of the first is lower: 53.7 for the first, 92.5 for the second.

With `O=C(O)Cc1ccccc1Nc1c(Cl)cccc1Cl` [diclofenac, 2-(2-(2,6-dichlorophenylamino)phenyl)acetic acid] the “Inhibition vs AA 4%” value was 77.6.

Same assay, conditions: ear thickness measurement after 1 h; indomethacin 5%, ivermectin 1%, diclofenac 1%

First: ivermectin
Second: COc1ccc2c(c1)c(CC(=O)O)c(C)n2C(=O)c1ccc(Cl)cc1 [indomethacin]
The “inhibition of the ear edema caused by arachidonic acid” value (shortened to “inhibition of the ear edema caused”) of the first is lower: 56% for the first, 95% for the second.

With `O=C(O)Cc1ccccc1Nc1c(Cl)cccc1Cl` [diclofenac, 2-(2-(2,6-dichlorophenylamino)phenyl)acetic acid] the “inhibition of the ear edema caused” value was 68%.

Same assay, conditions: ear thickness measurement after 2 h; indomethacin 5%, ivermectin 1%, diclofenac 1%

Compared with ivermectin, `COc1ccc2c(c1)c(CC(=O)O)c(C)n2C(=O)c1ccc(Cl)cc1` [indomethacin] is higher in “inhibition of the ear edema caused” value: 47% for the first, 94% for the second.

With `O=C(O)Cc1ccccc1Nc1c(Cl)cccc1Cl` [diclofenac, 2-(2-(2,6-dichlorophenylamino)phenyl)acetic acid] the “inhibition of the ear edema caused” value was 75%.

Same assay, conditions: ear thickness measurement after 4 h; indomethacin 5%, ivermectin 1%, diclofenac 1%

Compared with ivermectin, `COc1ccc2c(c1)c(CC(=O)O)c(C)n2C(=O)c1ccc(Cl)cc1` [indomethacin] is higher in “inhibition of the ear edema caused” value: 54% for the first, 92.5% for the second.

With `O=C(O)Cc1ccccc1Nc1c(Cl)cccc1Cl` [diclofenac, 2-(2-(2,6-dichlorophenylamino)phenyl)acetic acid] the “inhibition of the ear edema caused” value was 78%.
